# Results taken from patent US5200409A, “Composition and use of substituted 1,3-dithiolo-and 1,4-dithiinoquinoxalines as an antimicrobial” (The Dow Chemical Company, priority 1992, dated 1993).
# Test system: marine organisms
# Assay: Marine antifouling rating of coated test panels exposed to the marine environment
# Details: scale 10 (completely free of growth) to 0 (completely covered); for Marine Antifouling Rating, 3 Week Test, Top Panel / Marine Antifouling Rating, 3 Week Test, Bottom Panel: 3 weeks; for Marine Antifouling Rating, 3 Week Test, Top Panel / Marine Antifouling Rating, 6 Week Test, Top Panel: topside, white background; for Marine Antifouling Rating, 3 Week Test, Bottom Panel / Marine Antifouling Rating, 6 Week Test, Bottom Panel: underside, black background; for Marine Antifouling Rating, 6 Week Test, Top Panel / Marine Antifouling Rating, 6 Week Test, Bottom Panel: 6 weeks
# Procedure: Test panels are prepared from clear, rigid polyvinyl chloride film that is 0.381×10^-3 m thick and has one textured surface. The test panels are 0.1524 m by 0.1524 m squares that have 0.00635 m holes punched at corners on 0.127 m centers. A 0.102 square template, with a 0.067 m diameter hole at the center, is attached to the center of the textured surface of the test panels.
# A candidate marine antifoulant compound (1.0 g) is stirred into a resinous latex binder (9.0 g). A portion of the compound/binder mixture (1.5 g) is added to the center of the test panel and uniformly spread over the circular area inside the template.
# Water is added dropwise as needed to properly spread the compound/binder mixture. The template prevents the compound/binder mixture from spreading beyond the uncovered area. The test panel is allowed to sit for between ten to thirty minutes until the edge of the spread compound/binder mixture has dried. The template is then removed. The test panel is then allowed to dry for 8 to 12 hours at room temperature.
# Two test panels are prepared for each candidate marine antifoulant compound. Two control test panels are also prepared by only treating with the resinous latex binder. One test panel of each candidate marine […] compound is attached over a white background to the topside of an exposure support apparatus. The second test panel is attached over a black background to the underside of the exposure support apparatus. The exposure support apparatus is placed horizontally 0.0254 m under a marine surface with the white background topside facing up. The exposure support apparatus is exposed to the marine environment for both 3 and 6 weeks during which time the control test panels become substantially covered with mature marine organism growth on both the topside and underside exposures.
# After being removed from the exposure support apparatus, each test panel is inspected and rated for marine organism growth on both the treated and untreated areas of the test panel. The marine organisms present on the treated and untreated areas are noted. The presence of algea spores and bacterial slime are noted but not included in rating each test panel. The test panels are rated on a scale from 10 (representing completely free of marine organism growth) to 0 (representing completely covered with marine organism growth).
SMILES,"Marine Antifouling Rating, 3 Week Test, Top Panel","Marine Antifouling Rating, 3 Week Test, Bottom Panel","Marine Antifouling Rating, 6 Week Test, Top Panel","Marine Antifouling Rating, 6 Week Test, Bottom Panel"
"N#CC(C#N)=C1Sc2nc3ccc(Cl)cc3nc2S1 [O, 6-chloro-1,3-dithiolo-(4,5-b)-quinoxaline-2-ylidene-propanedinitrile]",0,2,6,0
"N#CC1=C(C#N)Sc2nc3cc([N+](=O)[O-])ccc3nc2S1 [A, 7-nitro-1,4-dithiino-(2,3-b)-quinoxaline-2,3-dicarbonitrile]",9,9,8,3
"Cc1ccc2nc3c(nc2c1)SC(C#N)=C(C#N)S3 [D, 7-Methyl-1,4-dithiino-(2,3-b)quinoxaline-2,3-dicarbonitrile]",4,3,3,0
"N#CC1=C(C#N)Sc2nc3ccccc3nc2S1 [E, 1,4-dithiino-(2,3-b)-quinoxaline-2,3-dicarbonitrile]",8,4,9,0
"N#CC(C#N)=C1Sc2nc3cc([N+](=O)[O-])c([N+](=O)[O-])cc3nc2S1 [M, 6,7-dinitro-1,3-dithiolo-(4,5-b)-quinoxaline-2-ylidene-propanedinitrile]",9,9,5,1
"N#CC(C#N)=C1Sc2nc3ccc([N+](=O)[O-])cc3nc2S1 [L, 6-nitro-1,3-dithiolo-(4,5-b)-quinoxaline-2-ylidene-propanedinitrile]",7,7,9,0
"N#CC1=C(C#N)Sc2nc3cc(Cl)ccc3nc2S1 [C, 7-chloro-1,4-dithiino-(2,3-b)-quinoxaline-2,3-dicarbonitrile]",0,9,5,0
"N#CC1=C(C#N)Sc2nc3cc([N+](=O)[O-])c([N+](=O)[O-])cc3nc2S1 [B, 7,8-Dinitro-1,4-dithiino-(2,3-b)quinoxaline-2,3-dicarbonitrile]",6,3,3,0
